Assay results: PubChem BioAssay AID2060891 (Molecular Pharmacology Branch, DTP, NCI, 2025)

System: K98450-129-R-PDC complex spheroid growth, percent test/control
Assay: Anticancer human tumor K98450-129-R-PDC patient-derived colon adenocarcinoma cell line growth inhibition [RAS]
Details: for IC50: curve of first compound; for viability, T/C: stronger effect = lower value
Method in brief: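 Agents were tested in combination matrices in half-log decrements from a top concentration at or near clinical Cmax (10 microM if undetermined). Targets were multi-cell spheroids of tumour lines plus HUVEC and MSC stromal cells.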
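Note: spheroids exposed to agents for seven days before the viability readout.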
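Throughout, for viability, T/C: luminescence used as a proxy for viable cell amount.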

Compound: C[C@@H](NC(=O)c1ncnc(N)c1Cl)c1ncc(C(=O)Nc2cc(C(F)(F)F)c(Cl)cn2)s1 + CCn1c(-c2cccnc2C(C)OC)c2c3cc(ccc31)N1CCOC(CC(NC(=O)C(C(C)C)N(C)C(=O)C3(F)CCN(C(=O)C#CC(C)(C)N(C)C)CC3)C(=O)N3CCCC(N3)C(=O)OCC(C)(C)C2)C1
- IC50 (second compound 0.000949 µM): > 10 µM
- IC50 (second compound 0.003 µM): > 10 µM
- IC50 (second compound 0.00949 µM): > 10 µM
- IC50 (second compound 0.03 µM): < 0.0316 µM
- IC50 (second compound 0.0949 µM): < 0.0316 µM
- IC50 (second compound 0.3 µM): < 0.0316 µM
- viability, T/C (second compound 0.000949 µM, first compound 0.0316 µM): 87.9%
- viability, T/C (second compound 0.000949 µM, first compound 0.1 µM): 87.2%
- viability, T/C (second compound 0.000949 µM, first compound 0.316 µM): 87%
- viability, T/C (second compound 0.000949 µM, first compound 1 µM): 70.2%
- viability, T/C (second compound 0.000949 µM, first compound 3.16 µM): 54.4%
- viability, T/C (second compound 0.000949 µM, first compound 10 µM): 61.5%
- viability, T/C (second compound 0.003 µM, first compound 0.0316 µM): 57.9%
- viability, T/C (second compound 0.003 µM, first compound 0.1 µM): 64.3%
- viability, T/C (second compound 0.003 µM, first compound 0.316 µM): 63.5%
- viability, T/C (second compound 0.003 µM, first compound 1 µM): 61.6%
- viability, T/C (second compound 0.003 µM, first compound 3.16 µM): 66.2%
- viability, T/C (second compound 0.003 µM, first compound 10 µM): 53.7%
- viability, T/C (second compound 0.00949 µM, first compound 0.0316 µM): 57.8%
- viability, T/C (second compound 0.00949 µM, first compound 0.1 µM): 55%
- viability, T/C (second compound 0.00949 µM, first compound 0.316 µM): 54.5%
- viability, T/C (second compound 0.00949 µM, first compound 1 µM): 55.3%
- viability, T/C (second compound 0.00949 µM, first compound 3.16 µM): 59.2%
- viability, T/C (second compound 0.00949 µM, first compound 10 µM): 48.6%
- viability, T/C (second compound 0.03 µM, first compound 0.0316 µM): 40.3%
- viability, T/C (second compound 0.03 µM, first compound 0.1 µM): 44.5%
- viability, T/C (second compound 0.03 µM, first compound 0.316 µM): 53.6%
- viability, T/C (second compound 0.03 µM, first compound 1 µM): 61.6%
- viability, T/C (second compound 0.03 µM, first compound 3.16 µM): 54.1%
- viability, T/C (second compound 0.03 µM, first compound 10 µM): 46.9%
- viability, T/C (second compound 0.0949 µM, first compound 0.0316 µM): 39.2%
- viability, T/C (second compound 0.0949 µM, first compound 0.1 µM): 40.5%
- viability, T/C (second compound 0.0949 µM, first compound 0.316 µM): 53.3%
- viability, T/C (second compound 0.0949 µM, first compound 1 µM): 55%
- viability, T/C (second compound 0.0949 µM, first compound 3.16 µM): 62.3%
- viability, T/C (second compound 0.0949 µM, first compound 10 µM): 49.9%
- viability, T/C (second compound 0.3 µM, first compound 0.0316 µM): 32.4%
- viability, T/C (second compound 0.3 µM, first compound 0.1 µM): 43.9%
- viability, T/C (second compound 0.3 µM, first compound 0.316 µM): 35.2%
- viability, T/C (second compound 0.3 µM, first compound 1 µM): 53.7%
- viability, T/C (second compound 0.3 µM, first compound 3.16 µM): 56.3%
- viability, T/C (second compound 0.3 µM, first compound 10 µM): 39.3%
